According to patent US20260158011A1 (Achieve Life Sciences, Inc., priority 2023, published 2026):
Marks after values point to notes of the source that are not given here.

System: adult e-cigarette users
Description: A second measurement consisted of biochemically verified continuous vaping abstinence at any time during treatment, with vaping abstinence at Week 3-6 or Week 6-9 for of cytisinicline treatment vs placebo. 7-day point prevalence rates were compared for vaping abstinence (Week 2 to 12) (FIG. 62). An additional measurement included reduction in daily vaping as measured by cotinine, where cytisinicline treatment vs placebo for a reduction in nicotine vaping using weekly quantitative cotinine levels from Week 2 to Week 12. Safety was assessed by adverse effects and serious adverse effects, considering number, severity, and attribution to study drug.

[1] = by Preferred Term table, 12 Weeks, N = 106, Safety Set
[2] = overall summary, 12 Weeks, N = 106, Safety Set
[3] = possibly, probably or definitely related, 12 Weeks, N = 106, Safety Set

In the case of `O=c1cccc2n1C[C@@H]1CNC[C@H]2C1` [cytisine, (−)-Cytisine], the “TEAE Migraine, subjects n” value (12 Weeks, N = 106, Safety Set) is reported as 1 n, the “TEAE Musculoskeletal chest pain, subjects %” value (12 Weeks, N = 106, Safety Set) is reported as “(0.9) %” and the “TEAE Musculoskeletal chest pain, subjects n” value (12 Weeks, N = 106, Safety Set) is reported as 1 n. The “TEAE Nasal congestion, subjects” value (12 Weeks, N = 106, Safety Set) was 0 n (%), the “TEAE Nasopharyngitis, subjects” value (12 Weeks, N = 106, Safety Set) was 0 n (%) and the “TEAE Nausea, subjects %” value (12 Weeks, N = 106, Safety Set) was “(4.7) %”. For the same compound, the “TEAE Nausea, subjects n” value (12 Weeks, N = 106, Safety Set) was 5 n, the “TEAE Neck pain, subjects %” value (12 Weeks, N = 106, Safety Set) was “(1.9) %” and the “TEAE Neck pain, subjects n” value (12 Weeks, N = 106, Safety Set) was 2 n. For the same compound, the “TEAE Oropharyngeal pain, subjects %” value (12 Weeks, N = 106, Safety Set) was “(1.9) %”, the “TEAE Oropharyngeal pain, subjects n” value (12 Weeks, N = 106, Safety Set) was 2 n and the “TEAE Otitis media, subjects” value (12 Weeks, N = 106, Safety Set) was 0 n (%). For the same compound, the “TEAE Outcome Fatal” value (12 Weeks, N = 106, Safety Set) was 0 n (%)/Events, the “TEAE Outcome Not recovered/Not resolved, Events” value (12 Weeks, N = 106, Safety Set) was 23 Events and the “TEAE Outcome Not recovered/Not resolved, subjects” value (12 Weeks, N = 106, Safety Set) was 14 (13.2) n (%). For the same compound, the “TEAE Outcome Recovered/Resolved with sequelae” value (12 Weeks, N = 106, Safety Set) was 0 n (%)/Events, the “TEAE Outcome Recovered/Resolved, Events” value (12 Weeks, N = 106, Safety Set) was 93 Events and the “TEAE Outcome Recovered/Resolved, subjects” value (12 Weeks, N = 106, Safety Set) was 47 (44.3) n (%). The “TEAE Outcome Recovering/Resolving, Events” value (12 Weeks, N = 106, Safety Set) was 3 Events, the “TEAE Outcome Recovering/Resolving, subjects” value (12 Weeks, N = 106, Safety Set) was 3 (2.8) n (%) and the “TEAE Pain in jaw, subjects” value (12 Weeks, N = 106, Safety Set) was 0 n (%). For the same compound, the “TEAE Panic attack, subjects %” value (12 Weeks, N = 106, Safety Set) was “(1.9) %”, the “TEAE Panic attack, subjects n” value (12 Weeks, N = 106, Safety Set) was 2 n and the “TEAE Pelvic pain, subjects %” value (12 Weeks, N = 106, Safety Set) was “(0.9) %”. For the same compound, the “TEAE Pelvic pain, subjects n” value (12 Weeks, N = 106, Safety Set) was 1 n, the “TEAE Post viral fatigue syndrome, subjects” value (12 Weeks, N = 106, Safety Set) was 0 n (%) and the “TEAE Pregnancy, subjects” value (12 Weeks, N = 106, Safety Set) was 0 n (%). The “TEAE Procedural anxiety, subjects %” value (12 Weeks, N = 106, Safety Set) was “(0.9) %”, the “TEAE Procedural anxiety, subjects n” value (12 Weeks, N = 106, Safety Set) was 1 n and the “TEAE Pyrexia, subjects” value (12 Weeks, N = 106, Safety Set) was 0 n (%). For the same compound, the “TEAE Relationship Definite, Events” value (12 Weeks, N = 106, Safety Set) was 3 Events, the “TEAE Relationship Definite, subjects” value (12 Weeks, N = 106, Safety Set) was 3 (2.8) n (%) and the “TEAE Relationship Not Related (first line, total of Not Related and Unlikely), Events” value (12 Weeks, N = 106, Safety Set) was 65 Events. The “TEAE Relationship Not Related (first line, total of Not Related and Unlikely), subjects” value (12 Weeks, N = 106, Safety Set) was 38 (35.8) n (%), the “TEAE Relationship Not Related (second line, sub-category), Events” value (12 Weeks, N = 106, Safety Set) was 55 Events and the “TEAE Relationship Not Related (second line, sub-category), subjects” value (12 Weeks, N = 106, Safety Set) was 32 (30.2) n (%). The “TEAE Relationship Possible, Events” value (12 Weeks, N = 106, Safety Set) was 29 Events, the “TEAE Relationship Possible, subjects” value (12 Weeks, N = 106, Safety Set) was 17 (16.0) n (%) and the “TEAE Relationship Probable, Events” value (12 Weeks, N = 106, Safety Set) was 22 Events. The “TEAE Relationship Probable, subjects” value (12 Weeks, N = 106, Safety Set) was 16 (15.1) n (%), the “TEAE Relationship Unlikely, Events” value (12 Weeks, N = 106, Safety Set) was 10 Events and the “TEAE Relationship Unlikely, subjects” value (12 Weeks, N = 106, Safety Set) was 9 (8.5) n (%). For the same compound, the “TEAE Restless legs syndrome, subjects %” value (12 Weeks, N = 106, Safety Set) was “(0.9) %”, the “TEAE Restless legs syndrome, subjects n” value (12 Weeks, N = 106, Safety Set) was 1 n and the “TEAE Sensitive skin, subjects %” value (12 Weeks, N = 106, Safety Set) was “(0.9) %”. For the same compound, the “TEAE Sensitive skin, subjects n” value (12 Weeks, N = 106, Safety Set) was 1 n, the “TEAE Severity Mild, Events” value (12 Weeks, N = 106, Safety Set) was 92 Events and the “TEAE Severity Mild, subjects” value (12 Weeks, N = 106, Safety Set) was 50 (47.2) n (%). For the same compound, the “TEAE Severity Moderate, Events” value (12 Weeks, N = 106, Safety Set) was 26 Events, the “TEAE Severity Moderate, subjects” value (12 Weeks, N = 106, Safety Set) was 16 (15.1) n (%) and the “TEAE Severity Severe, Events” value (12 Weeks, N = 106, Safety Set) was 1 Events. For the same compound, the “TEAE Severity Severe, subjects” value (12 Weeks, N = 106, Safety Set) was 1 (0.9) n (%), the “TEAE Sinus congestion, subjects %” value (12 Weeks, N = 106, Safety Set) was “(0.9) %” and the “TEAE Sinus congestion, subjects n” value (12 Weeks, N = 106, Safety Set) was 1 n. For the same compound, the “TEAE Sinusitis, subjects” value (12 Weeks, N = 106, Safety Set) was 0 n (%), the “TEAE Stress, subjects %” value (12 Weeks, N = 106, Safety Set) was “(0.9) %” and the “TEAE Stress, subjects n” value (12 Weeks, N = 106, Safety Set) was 1 n. The “TEAE Thirst, subjects %” value (12 Weeks, N = 106, Safety Set) was “(0.9) %”, the “TEAE Thirst, subjects n” value (12 Weeks, N = 106, Safety Set) was 1 n and the “TEAE Tooth extraction, subjects” value (12 Weeks, N = 106, Safety Set) was 0 n (%). For the same compound, the “TEAE Trismus, subjects” value (12 Weeks, N = 106, Safety Set) was 0 n (%), the “TEAE Upper respiratory tract infection, subjects %” value (12 Weeks, N = 106, Safety Set) was “(5.7) %” and the “TEAE Upper respiratory tract infection, subjects n” value (12 Weeks, N = 106, Safety Set) was 6 n. The “TEAE Urinary tract infection, subjects %” value (12 Weeks, N = 106, Safety Set) was “(0.9) %”, the “TEAE Urinary tract infection, subjects n” value (12 Weeks, N = 106, Safety Set) was 1 n and the “TEAE Vasectomy, subjects %” value (12 Weeks, N = 106, Safety Set) was “(0.9) %”. The “TEAE Vasectomy, subjects n” value (12 Weeks, N = 106, Safety Set) was 1 n, the “TEAE Vomiting, subjects %” value (12 Weeks, N = 106, Safety Set) was “(0.9) %” and the “TEAE Vomiting, subjects n” value (12 Weeks, N = 106, Safety Set) was 1 n. For the same compound, the “TEAE Wisdom teeth removal, subjects %” value (12 Weeks, N = 106, Safety Set) was “(0.9) %”, the “TEAE Wisdom teeth removal, subjects n” value (12 Weeks, N = 106, Safety Set) was 1 n and the “Adverse event Abnormal dreams, %” value (Cytisinicline 12 wks (N = 106)) was 12.3%. For the same compound, the “Adverse event Anxiety, %” value (Cytisinicline 12 wks (N = 106)) was 9.4%, the “Adverse event Fatigue, %” value (Cytisinicline 12 wks (N = 106)) was 5.7% and the “Adverse event Headache, %” value (Cytisinicline 12 wks (N = 106)) was 6.6%. The “Adverse event Insomnia, %” value (Cytisinicline 12 wks (N = 106)) was 10.4%, the “Adverse event Nausea, %” value (Cytisinicline 12 wks (N = 106)) was 4.7% and the “Adverse event Upper respiratory tract infection, %” value (Cytisinicline 12 wks (N = 106)) was 5.7%. For the same compound, the “At Least One TEAE” value (Cytisinicline 12 wks (N = 106)) was 54 (50.9) n (%), the “Subjects with At Least One TEAE, %” value (Cytisinicline 12 wks (N = 106)) was 50.9% and the “TEAE relationship: Not Related” value (Cytisinicline 12 wks (N = 106)) was 39 (35.8) n (%). For the same compound, the “TEAE relationship: Related” value (Cytisinicline 12 wks (N = 106)) was 30 (28.3) n (%), the “Treatment-emergent adverse events: Mild” value (Cytisinicline 12 wks (N = 106)) was 50 (47.2) n (%) and the “Treatment-emergent adverse events: Moderate” value (Cytisinicline 12 wks (N = 106)) was 16 (15.1) n (%). For the same compound, the “Treatment-emergent adverse events: Severe” value (Cytisinicline 12 wks (N = 106), abnormal dreams) was 1 (0.9)* n (%), the “At Least One TEAE, subjects %” value [1] was “(50.9) %” and the “At Least One TEAE, subjects n” value [1] was 54 n. For the same compound, the “Rate of adverse events” value (cytisinicline arm, 12 weeks) was 50.9%, the “Adverse event COVID-19, %” value (human, in vivo) was 3 (2.8) % and the “TEAE COVID-19, subjects %” value (human, in vivo) was “(2.8) %”. For the same compound, the “TEAE COVID-19, subjects n” value (human, in vivo) was 3 n, the “TEAE Influenza, subjects %” value (human, in vivo) was “(1.9) %” and the “TEAE Influenza, subjects n” value (human, in vivo) was 2 n. For the same compound, the “At Least One TEAE, Events” value [2] was 119 Events, the “At Least One TEAE, subjects” value [2] was 54 (50.9) n (%) and the “TEAE Relationship Related, Events” value [3] was 54 Events. The “TEAE Relationship Related, subjects” value [3] was 30 (28.3) n (%).
